The values below come from US6469013B2, “Therapeutic compounds” (Parker Hughes Institute, priority 1998, dated 2002).

One series relates to NALM-6 (pre-B ALL). The series is described as follows: Methylcellulose clonogenic assay. In kind it is cell-based, human. Here is the method:
The antileukemic activity of compound 6 against clonogenic tumor cells was examined using a methylcellulose colony assay system (Uckun, F. M., et al., J. Exp. Med. 163: 347-368, 1986; Messinger, Y., et al., Clin Cancer Res. 4: 165-70, 1998). In brief, cells (10^5/ml in RPMI-10% FBS) were treated overnight at 37° C. with compound 6 at varying concentrations. After treatment, cells were washed twice, plated at 10^4 or 10^5 cells/ml in RPMI-10% FMS-0.9% methylcellulose in Petri dishes, and cultured for 7 days at 37° C. in a humidified 5% CO2 incubator. Subsequently, leukemic cell (or tumor cell) colonies were enumerated using an inverted phase-contrast microscope. The percent inhibition of colony formation was calculated using the following formula:
% Inhibition=1−mean number of colonies in test culture×100 mean number of colonies in control culture

Series [1] has as its system HaCaT human epidermal cells. The series is described as follows: UVB-induced PGE2 release (EIA). In kind it is cell-based. As to conditions: light or radiation study, UVB 25 mj/cm^2, 6 h, read-out: inhibition in UVB light induced prostaglandin release. From the text: HaCaT, which is a spontaneously transformed human epidermal cell line (16) was maintained in Dulbecco's modified Eagle's medium (DMEM) supplemented with 10% fetal bovine serum (Summit Biotech, Ft. Collins, Colo.).
A bank of 8-FSX24T12/HO/UVB lamps (National Biological Corporation, Twinsburg, Ohio) that emits light predominantly in the UVB range, 280-320 nm was used to irradiate mice and cell cultures. The irradiance of UVB lamps was always measured before irradiation using a UVB meter (model—500C obtained from National Biological Corporation, Twinsburg, Ohio). The dose of UVB light used to irradiate cultures was 25 mj/cm^2. Anesthetized mice received UVB radiations to a 2.0 cm^2 area on their dorsal surface. […]
Confluent HaCaT cells cultured in 24-well culture dishes were washed three times with serum-free DMEM containing 1% bovine serum albumin (BSA) (Cayman chemicals, Ann Arbor, Mich.) and incubated with 3-30 μM compound compound 6 for 1 hour at 37° C. After incubation the cells were washed twice with PBS, and either exposed to 25 mj/cm^2 UVB light or stimulated with 50 ng/ml rhEGF, and fed with serum-free DMEM containing 1% BSA. compound 6 was readministered and the cells were incubated for 6 h at 37° C. […] Cellular protein was determined using the Pierce's BCA protein assay method (Smith, P. K., et al., 1985, Anal Biochem. 150 (1):76-85).

A further series relates to C57BL/6 recipients. In words: Allogeneic islet transplantation (BALB/c islets). In kind it is in vivo, mouse. Here is the method: Islets were hand-picked 3-4 times under the dissecting scope before islets were free of exocrine tissue, vessels, lymph nodes and ducts and ready for transplantation.
Four hundred islets were placed in Hamilton syringe and transplanted under the left kidney capsule of each diabetic recipient mouse. Recipients were rendered diabetic with a single i.p. dose of streptozotocin (200 mg/kg; Sigma, St. Louis, Mo.) 1 wk before transplantation. Blood glucose level was measured by One Touch Profile glucose monitor system (Lifescan, Milpitas, Calif.). […] Allograft function was monitored by serial blood glucose measurements. […] All injections were given i.p.
Kidneys bearing grafts were removed, fixed in 10% formalin and embedded in paraffin. Serial sections of graft area were cut and stained with hematoxylin and eosin. For insulin staining, sections were stained by immunoperoxidase method using 1:100 dilution of polyclonal guinea pig anti-insulin antibody (Gpx Insulin, Dako, Carpinteria, Calif.) and 1:100 dilution of secondary antibody conjugated to horse radish peroxidase (Guinea Pig Immunoglobulins HRP, Dako, Carpinteria, Calif.). Sections were briefly counterstained with hematoxylin and mounted for light microscopic examination.

A further series has as its system C57BL/6 males. The series is described as follows: Splenocyte populations after in vivo treatment (FACS). The arrangement: species or system mouse. The following applies: 130 mg/kg for 10 days. The procedure:
All Abs were purchased from Pharmingen, San Diego, Calif. Stained splenocytes were analyzed by FACS Calibur, as described above.

Where two headings read alike, the source gives them in different places.

Consider `COc1cc2ncnc(Nc3ccc(O)cc3)c2cc1OC` [WHI-P131, 4-(4′-hydroxyl-phenyl)-amino-6,7-dimethoxyquinazoline], for which the inhibition at 100 µM in the series with NALM-6 (pre-B ALL) (Homo sapiens, NALM-6, 100 μM, 'these leukemia cell lines', read-out: inhibition of in vitro colony formation) was greater than 99%; in the series with NALM-6 (pre-B ALL) (Homo sapiens, NALM-6, 100 μM, read-out: % Inhibition) it was greater than 99.9%. Moreover, the inhibition at 0.1 µM in the series on NALM-6 (pre-B ALL) (Homo sapiens, NALM-6, 0.1 μM) is 0%. Besides, in the series on NALM-6 (pre-B ALL) (Homo sapiens, NALM-6, 1 μM), the inhibition at 1 µM turned out to be 0%. For the same molecule, testing at 10 µM in the series with NALM-6 (pre-B ALL) (Homo sapiens, NALM-6, 10 μM) gave an inhibition of 33.2%. The EC50 in the series on NALM-6 (pre-B ALL) (Homo sapiens, NALM-6 cells, read-out: EC50, inhibition of clonogenic growth) stood at 24.4 µM. Further, the “Mean No. of Colonies/10^5 Cells” value with NALM-6 (pre-B ALL) (NALM-6, 0.1 μM) is given as 2970 (2756, 3184); in the series with NALM-6 (pre-B ALL) (NALM-6, 1 μM) it was 3180 (3080, 3136); in the series with NALM-6 (pre-B ALL) (NALM-6, 10 μM) it was 1932 (1864, 2000); with NALM-6 (pre-B ALL) (NALM-6, 100 μM), 2 (2, 2). The inhibition at 30 µM in series [1] is roughly 90%. Besides, the “islet allograft mean survival time (MST)” value amounted to 24.7±3.4 days in the series on C57BL/6 recipients (50 mg/kg daily i.p., controls 14.1±0.9) and 25.3±3.8 days in the series with C57BL/6 recipients (75 mg/kg daily i.p.). Besides, in the series with C57BL/6 males (data not shown), the “percentages of CD3+, CD4+ and CD8+ T-cells and CD19+ B-cells vs vehicle” value was “no differences”. In addition, the “number of CD4+ T-cells” value with C57BL/6 males (controls 20.5±0.6) was 16.8±1.2 ×10^6. Moreover, the “number of CD3+ splenocytes” value in the series with C57BL/6 males (controls 46.9±2.6) is listed as 37.7±3.2 ×10^6. Also, the “number of B-cells” value in the series on C57BL/6 males (controls 78.2±6.1) is listed as 57.1±5.3 ×10^6. Besides, the “Total number of splenocytes” value in the series with C57BL/6 males (vehicle 154±8.5) is reported as 119±9.4 ×10^6.

The term inhibition denotes the percentage by which the read-out fell short of the control. Broadly, the EC50 is the concentration needed to bring the measured effect to its halfway point.
